Values of other authors as cited in patent US20110008428A1, “SOLID PHARMACEUTICAL COMPOSITION COMPRISING A NON-PEPTIDE ANGIOTENSIN II RECEPTOR ANTAGONIST AND A DIURETIC” (ratiopharm GmbH, priority 2008, published 2011).

Settings: free acid form; physiological pH range of the gastro-intestinal tract, between pH 1-7

CCCc1nc2c(C)cc(-c3nc4ccccc4n3C)cc2n1Cc1ccc(-c2ccccc2C(=O)O)cc1 [Telmisartan, 4′-[(1,4′-dimethyl-2′-n-propyl-[2,6′-bi-1H-benzimidazol]-1′-yl)methyl]-[1,1′-biphenyl]-2-carboxylic acid]
solubility in aqueous systems: very poor
